In patent US12492182B2, “Hydroxytriazine compounds and pharmaceutical use thereof” (Japan Tobacco Inc., priority 2015, dated 2025):

What was measured:
human mPGES-1 = biological target: T1, human mPGES-1 (Homo sapiens, UniProt O14684); test: Evaluation of human mPGES-1 enzyme inhibitory activity (HTRF measurement of PGE2); format: biochemical; details: IC50 value; microsome fraction of CHO-S cells expressing human mPGES-1, PGH2 substrate, PGE2 by HTRF; read-out: humans mPGES-1 enzyme inhibitory activity
T1 construct: made in house; host or cells: Chinese hamster ovary-derived cells (FreeStyle CHO-S), transient transfection of pcDNA3.1(+)/human mPGES-1; microsome fraction
T1 sequence (O14684 1-152): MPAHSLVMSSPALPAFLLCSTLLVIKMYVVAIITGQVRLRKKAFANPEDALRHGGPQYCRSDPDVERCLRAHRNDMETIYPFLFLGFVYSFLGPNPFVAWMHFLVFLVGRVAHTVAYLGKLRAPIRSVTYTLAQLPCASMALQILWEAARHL
Summary of the method: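 Enzyme source was a microsome fraction from CHO-S cells transfected with human mPGES-1, diluted to 5 μg/mL protein in reduced GSH (12.5 mmol/L KPB), preincubated with compound for 10 min at room temperature with 2% final DMSO. Reaction started with PGH2 and run 45 seconds at room temperature. PGE2 measured by HTRF.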

A549 cell = test: Evaluation of PGE2 production inhibitory action using A549 cell (IL-1β stimulated); format: cell-based, human; details: Homo sapiens; for IC50: A549, A549 cell, recombinant human IL-1β stimulation, read-out: cell PGE2 production inhibitory activity (IC50 value)
Summary of the method: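 A549 cells (human lung cancer) in F-12K with 2% FBS were preincubated with test article for 30 min, then stimulated with IL-1β (1 ng/mL final) for 18 hr at 37 °C; 0.5% DMSO final. Supernatant PGE2 was measured by HTRF against a standard curve; inhibition is relative to vehicle and unstimulated blank wells.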

Compound | IC50 (human mPGES-1) | IC50 (A549 cell) | inhibition at 0.03 µM (A549 cell; A549 cell, IL-1β stimulation, at the highest concentration given (0.03 μM), read-out: cell PGE2 production inhibitory activity (%), printed in parentheses after the > bound)
CC(C)c1cccc(-c2nc(O)nc(-c3cc(CNC(=O)C(C)(C)C(F)F)ccc3Cl)n2)c1 [Example 77] | 0.8 nM | 44 nM | –
CCC[C@@H](C)Oc1ccc(-c2nc(O)nc(-c3cc(CNC(=O)C(C)(C)OC)ccc3Cl)n2)cn1 [Example 78] | 1.2 nM | 9.2 nM | –
CCC[C@@H](C)Oc1ccc(-c2nc(O)nc(-c3cc(CNC(=O)[C@@](C)(OC)C(F)(F)F)ccc3Cl)n2)cn1 [Example 80] | 2.7 nM | 2 nM | –
CCCCCCOc1ccc(-c2nc(O)nc(-c3cc(CNC(=O)[C@@](C)(OC)C(F)(F)F)ccc3Cl)n2)cn1 [Example 83] | 5 nM | 2.7 nM | –
CCCCCCOc1ccc(-c2nc(O)nc(-c3cc(CNC(=O)C(C)(C)CF)ccc3Cl)n2)cn1 [Example 84] | 2 nM | 6 nM | –
CC(C)(C)c1cc(-c2nc(O)nc(-c3cc(CNC(=O)C(C)(C)C(F)(F)F)ccc3Cl)n2)ccc1Cl [Example 87] | 5.2 nM | 2.9 nM | –
CC1(c2cccc(-c3nc(O)nc(-c4cc(CNC(=O)C(C)(C(F)(F)F)C(F)(F)F)ccc4Cl)n3)c2)CC1 [Example 89] | 3.7 nM | 2.5 nM | –
CC(C)c1cccc(-c2nc(O)nc(-c3cc(CNC(=O)C(C)(C(F)(F)F)C(F)(F)F)ccc3Cl)n2)c1 [Example 90] | 2.1 nM | 3.9 nM | –
CC(C)(C)c1cccc(-c2nc(O)nc(-c3cc(CNC(=O)C(C)(C(F)(F)F)C(F)(F)F)ccc3Cl)n2)c1 [Example 91] | 4.6 nM | 4 nM | –
CC(C)c1cccc(-c2nc(O)nc(-c3cc(CNC(=O)C4(CF)CCCC4)ccc3Cl)n2)c1 [Example 92] | 0.5 nM | 90 nM | –
CC(C)(C)c1cccc(-c2nc(O)nc(-c3cc(CNC(=O)C4(CF)CCCC4)ccc3Cl)n2)c1 [Example 93] | 1.3 nM | 30 nM | –
CC1(c2cccc(-c3nc(O)nc(-c4cc(CNC(=O)C5(CF)CCCC5)ccc4Cl)n3)c2)CC1 [Example 94] | 1 nM | 59 nM | –
CC(C)c1cc(-c2nc(O)nc(-c3cc(CNC(=O)C4(CF)CCCC4)ccc3Cl)n2)ccc1Cl [Example 95] | 1.9 nM | 17 nM | –
CC(C)c1cccc(-c2nc(O)nc(-c3cc(CNC(=O)C4(C(F)F)CCCC4)ccc3Cl)n2)c1 [Example 96] | 0.8 nM | 61 nM | –
CC(C)c1cc(-c2nc(O)nc(-c3cc(CNC(=O)C4(C(F)F)CCCC4)ccc3Cl)n2)ccc1Cl [Example 97] | 3.8 nM | 9 nM | –
CCC[C@H](C)Oc1ccc(-c2nc(O)nc(-c3cc(CNC(=O)C4(CF)CCCCC4)ccc3Cl)n2)cn1 [Example 106] | 3.6 nM | 5 nM | –
CC(C)c1cc(-c2nc(O)nc(-c3cc(CNC(=O)C4(C(F)F)CCCCC4)ccc3Cl)n2)ccc1Cl [Example 108] | 2.4 nM | 2.4 nM | –
CCC[C@H](C)Oc1ccc(-c2nc(O)nc(-c3cc(CNC(=O)C4(C(F)F)CCCC4)ccc3Cl)n2)cn1 [Example 110] | 3.7 nM | 2.7 nM | –
CC(C)c1cccc(-c2nc(O)nc(-c3cc(CNC(=O)C4(CF)CCCCCC4)ccc3Cl)n2)c1 [Example 111] | 1.5 nM | 54 nM | –
CC(C)c1cc(-c2nc(O)nc(-c3cc(CNC(=O)C4(CF)CCCCCC4)ccc3Cl)n2)ccc1Cl [Example 114] | 3.1 nM | 13 nM | –
CCC(CC)(CF)C(=O)NCc1ccc(Cl)c(-c2nc(O)nc(-c3ccc(Cl)c(C(C)C)c3)n2)c1 [Example 115] | 1.3 nM | 6.6 nM | –
CCC(CC)(C(=O)NCc1ccc(Cl)c(-c2nc(O)nc(-c3cccc(C(C)C)c3)n2)c1)C(F)F [Example 116] | 1.2 nM | 7.2 nM | –
CCC(CC)(C(=O)NCc1ccc(Cl)c(-c2nc(O)nc(-c3cccc(C(C)(C)C)c3)n2)c1)C(F)F [Example 117] | 1.6 nM | 4.2 nM | –
CCC(CC)(C(=O)NCc1ccc(Cl)c(-c2nc(O)nc(-c3cccc(C4(C)CC4)c3)n2)c1)C(F)F [Example 118] | 0.4 nM | 17 nM | –
CCC(CC)(C(=O)NCc1ccc(Cl)c(-c2nc(O)nc(-c3ccc(Cl)c(C(C)C)c3)n2)c1)C(F)F [Example 119] | 1.8 nM | 3 nM | –
CC(C)c1cccc(-c2nc(O)nc(-c3cc(CNC(=O)C4(C(F)F)CCCCCC4)ccc3Cl)n2)c1 [Example 120] | 1.8 nM | > 30 nM | 43%
CC(C)(C)c1cccc(-c2nc(O)nc(-c3cc(CNC(=O)C4(C(F)F)CCCCCC4)ccc3Cl)n2)c1 [Example 121] | 3.3 nM | 7.9 nM | –
CC1(c2cccc(-c3nc(O)nc(-c4cc(CNC(=O)C5(C(F)F)CCCCCC5)ccc4Cl)n3)c2)CC1 [Example 122] | 1.8 nM | 19 nM | –

Now from value to molecule, other results behind:

IC50 (human mPGES-1) | IC50 (A549 cell) | Compound | inhibition at 0.03 µM (A549 cell; A549 cell, IL-1β stimulation, at the highest concentration given (0.03 μM), read-out: cell PGE2 production inhibitory activity (%), printed in parentheses after the > bound)
7.2 nM | 2.2 nM | CCCCCCOc1ccc(-c2nc(O)nc(-c3cc(CNC(=O)C(CC)(CC)OC)ccc3Cl)n2)cn1 [Example 82] | –
4.9 nM | 3.5 nM | CCCCCCOc1ccc(-c2nc(O)nc(-c3cc(CNC(=O)C(C)(C)C(F)F)ccc3Cl)n2)cn1 [Example 85] | –
1.8 nM | 2.1 nM | CCC[C@H](C)Oc1ccc(-c2nc(O)nc(-c3cc(CNC(=O)C(C)(C)C(F)(F)F)ccc3Cl)n2)cn1 [Example 86] | –
19 nM | 1.6 nM | CC(C)c1cc(-c2nc(O)nc(-c3cc(CNC(=O)C(C)(C(F)(F)F)C(F)(F)F)ccc3Cl)n2)ccc1Cl [Example 88] | –
1.2 nM | 43 nM | CC(C)c1cccc(-c2nc(O)nc(-c3cc(CNC(=O)C4(CF)CCCCC4)ccc3Cl)n2)c1 [Example 98] | –
1.7 nM | 11 nM | CC(C)(C)c1cccc(-c2nc(O)nc(-c3cc(CNC(=O)C4(CF)CCCCC4)ccc3Cl)n2)c1 [Example 99] | –
0.9 nM | 43 nM | CC1(c2cccc(-c3nc(O)nc(-c4cc(CNC(=O)C5(CF)CCCCC5)ccc4Cl)n3)c2)CC1 [Example 100] | –
2.1 nM | 7.9 nM | CC(C)c1cc(-c2nc(O)nc(-c3cc(CNC(=O)C4(CF)CCCCC4)ccc3Cl)n2)ccc1Cl [Example 101] | –
1.1 nM | 25 nM | CCC[C@H](C)Oc1ccc(-c2nc(O)nc(-c3cc(CNC(=O)C(C)(C)OC)ccc3Cl)n2)cn1 [Example 102] | –
2.4 nM | 6.5 nM | CCC[C@H](C)Oc1ccc(-c2nc(O)nc(-c3cc(CNC(=O)C(CC)(CC)OC)ccc3Cl)n2)cn1 [Example 103] | –
1.5 nM | 15 nM | CCC[C@H](C)Oc1ccc(-c2nc(O)nc(-c3cc(CNC(=O)C(C)(C)CF)ccc3Cl)n2)cn1 [Example 105] | –
3.2 nM | 1.8 nM | CCC[C@H](C)Oc1ccc(-c2nc(O)nc(-c3cc(CNC(=O)C4(C(F)F)CCCCC4)ccc3Cl)n2)cn1 [Example 109] | –
3.3 nM | 24 nM | CC(C)(C)c1cccc(-c2nc(O)nc(-c3cc(CNC(=O)C4(CF)CCCCCC4)ccc3Cl)n2)c1 [Example 112] | –
1.8 nM | 95 nM | CC1(c2cccc(-c3nc(O)nc(-c4cc(CNC(=O)C5(CF)CCCCCC5)ccc4Cl)n3)c2)CC1 [Example 113] | –
4 nM | 1.5 nM | CCC[C@@H](C)Oc1ccc(-c2nc(O)nc(-c3cc(CNC(=O)C(CC)(CC)C(F)F)ccc3Cl)n2)cn1 [Example 123] | –
